The test system of one data set is Huh-7 HCV replicon cells. Put plainly: CC50 assay (CellTiter-Glo) in Huh-7 HCV replicon cells. Type of data set: cell-based, human. Particulars: Table 1, 3 days. As for the experimental part: (§1) The anti HCV activity of specifically 2,4,6-trisubstituted pteridine derivatives was tested in a human hepatoma Huh-7 cell line harbouring a HCV replicon. The assay comprised the following steps:
(§2) Step 1: compound preparation and serial dilution involved the following alternatives, depending upon the water solubility of pteridine derivative being tested: • 1. with respect to water soluble 2,4,6-trisubstituted pteridine derivatives, 500 μL of solution in cell media (DMEM, 10% FBS, P/S, L-Glutamine) was prepared with a concentration that is twice the concentration of the starting final serial dilution concentration. 150 μL of the solution was added to the pre-specified wells in column 1 of a 96-well cell culture plate (PerkinElmer, white plate, cat. #6005181, for EC50 assay; black plate, cat. #6005182 for CC50 assay). The rest of the plate, i.e. columns 2-12, was filled with 100 μL of cell media. The plate was then placed on a Precision 2000 Workstation in order to start serial dilution. Pteridine compounds were diluted three times each step from column 1 to column 10. Column 11 was used as a blank control (no pteridine compound added). • 2. With respect to poorly water soluble pteridine derivatives, DMSO was used as a solvent, and serial dilution was performed in 50% DMSO in water, in a 384-well plate. A solution containing the relevant compound at 100-fold the concentration of the starting final serial dilution concentration was prepared in 50% DMSO in water and added to the pre-specified wells in column 1 of a polypropylene 384-well plate. This plate was then placed on a Precision 2000 Workstation in order to start serial dilution. After serial dilution, 2 μL of the solution was transferred from the 384-well plate to a 96-well cell culture plate containing 100 μL of cell media on a Biomek FX Workstation. The DMSO concentration in the final assay condition was 0.5% after cells have been added to the plate and the total volume in each well was brought to 200 μL. Step 2: to each well of the serial dilution plate prepared in step 1, 100 μL of cell media containing 6000 suspended Huh-7 HCV replicon cells was added with a Multidrop workstation. Plates were incubated for 3 days at 37° C. with 5% CO2. Step 3: detection: • 1) with respect to the EC50 assay, the media in a 96-well cell culture plate was aspirated with a Biotek EL405 plate-washer. A volume of 200 μL of a solution containing a 1:1 mixture of a cell-lysis buffer (commercially available from Promega, Luciferase Cell Culture Lysis 5× Reagent, cat. #E1531) and a luciferase substrate solution (commercially available from Promega, Luciferase Assay, cat. # E4550) was added to each well of the plate with Multidrop. The plate was incubated for 30 minutes at room temperature before the luminescence signal was measured with a TopCount plate-reader. • 2) with respect to the CC50 assay, 100 μL of a pre-mixed CellTiter-Glo (commercially available from Promega, cat. # G7572) solution was added directly to the cell culture in each well of the plate and the luminescence signal was measured with a TopCount plate-reader after 10 minutes of incubation at room temperature.
(§3) Results are expressed by the following data: • the 50% effective concentration (EC50), i.e. the concentration that protects 50% of the cell monolayer from virus-induced cythopathic effect, and • the 50% cytostatic concentration (CC50), i.e. the concentration that results in 50% inhibition of cell growth.

The target in another data set is HCV replicon. The data set can be described thus: Anti-HCV replicon assay (EC50, luciferase). Type of data set: cell-based, Hepatitis C virus (HCV). To be noted: Table 1; Huh-7 HCV replicon cells, 3 days, luciferase; read-out: EC50. The protocol:
as §1, §2, §3
Background: In antiviral work, replicon cells carry a viral genome segment that copies itself.

As to `COc1ccc(-c2cnc3nc(N)nc(N4CCN(C(=O)COc5ccccc5)CC4)c3n2)cc1OC` [Example 1], in the data set on Huh-7 HCV replicon cells, the CC50 is > 20 µM. Besides, at HCV replicon, the EC50 is < 0.3 µM.
For `COc1ccc(-c2cnc3nc(N)nc(N4CCN(CCOc5ccccc5)CC4)c3n2)cc1OC` [Example 2], in that order: > 20 µM and < 0.3 µM.
As to `COc1ccc(-c2cnc3nc(N)nc(N4CCN(C(=O)Nc5cccc(C)c5)CC4)c3n2)cc1OC` [Example 3], the half-maximal cytotoxic concentration (CC50) in the data set on Huh-7 HCV replicon cells is < 10 µM. The EC50 at HCV replicon is < 0.3 µM.
In the data set with Huh-7 HCV replicon cells, `COc1ccc(-c2cnc3nc(NCc4cccs4)nc(N)c3n2)cc1OC` [Example 12] showed a CC50 of 10 to 20 µM. On HCV replicon, the EC50 was in the range of 0.3 to 1 µM.
For `CCCCCC(=O)N1CCN(c2nc(N)nc3ncc(-c4ccc(OC)c(OC)c4)nc23)CC1` [Example 16], in that order: 10 to 20 µM and < 0.3 µM.
For `COc1ccc(-c2cnc3nc(N)nc(N4CCN(C(=O)c5cccs5)CC4)c3n2)cc1OC` [Example 19] the same measures were 10 to 20 µM and < 0.3 µM.
For `CCN(CC)C(=O)N1CCN(c2nc(N)nc3ncc(-c4ccc(OC)c(OC)c4)nc23)CC1` [Example 20] the same measures were > 20 µM and < 0.3 µM.
`COc1ccc(-c2cnc3nc(N)nc(N4CCN(C(=O)c5ccncc5)CC4)c3n2)cc1OC` [Example 22] displayed a CC50 in the data set on Huh-7 HCV replicon cells of 10 to 20 µM. Moreover, the EC50 on HCV replicon is < 0.3 µM.
On to `CCCCCOc1ccc(C(=O)N2CCN(c3nc(N)nc4ncc(-c5ccc(OC)c(OC)c5)nc34)CC2)cc1` [Example 24], for which the CC50 in the data set with Huh-7 HCV replicon cells is < 10 µM. Further, the EC50 on HCV replicon was < 0.3 µM.
Molecule `COc1ccc(-c2cnc3nc(N)nc(N4CCN(S(=O)(=O)c5ccccc5)CC4)c3n2)cc1OC` [Example 26] returned a CC50 in the data set on Huh-7 HCV replicon cells of 10 to 20 µM. The EC50 at HCV replicon is < 0.3 µM.
As for `COc1ccc(-c2cnc3nc(N)nc(N4CCN(C(=O)Cc5cccs5)CC4)c3n2)cc1OC` [Example 27], in the data set with Huh-7 HCV replicon cells, the CC50 was < 10 µM. The EC50 on HCV replicon was < 0.3 µM.
For `COc1ccc(-c2cnc3nc(N)nc(N4CCN(C(=O)/C=C/c5ccccc5)CC4)c3n2)cc1OC` [Example 28], in that order: < 10 µM and < 0.3 µM.
In the case of `COc1ccc(-c2cnc3nc(N)nc(N4CCN(C(=O)N5CCCC5)CC4)c3n2)cc1OC` [Example 29], the CC50 with Huh-7 HCV replicon cells was in the range of 10 to 20 µM. In addition, the EC50 at HCV replicon was < 0.3 µM.
For `COc1ccc(-c2cnc3nc(N)nc(N4CCN(C(=O)c5cc(F)c(Cl)nc5Cl)CC4)c3n2)cc1OC` [Example 31] the same measures were < 10 µM and < 0.3 µM.
For `COCC(=O)N1CCN(c2nc(N)nc3ncc(-c4ccc(OC)c(OC)c4)nc23)CC1` [Example 32], in that order: > 20 µM and < 0.3 µM.
For `COc1ccc(-c2cnc3nc(N)nc(N4CCN(S(=O)(=O)Cc5ccccc5)CC4)c3n2)cc1OC` [Example 34], in that order: > 20 µM and < 0.3 µM.
With `COc1ccc(-c2cnc3nc(N)nc(N4CCN(C(=O)Cc5ccc(Cl)cc5)CC4)c3n2)cc1OC` [Example 36], the CC50 in the data set with Huh-7 HCV replicon cells is < 10 µM. In addition, at HCV replicon, the EC50 is < 0.3 µM.
For `COc1ccc(-c2cnc3nc(N)nc(N4CCN(C(=O)c5ccoc5)CC4)c3n2)cc1OC` [Example 38] the same measures were 10 to 20 µM and 0.3 to 1 µM.
For `COc1ccc(-c2cnc3nc(N)nc(N4CCN(C(=O)OCc5ccccc5)CC4)c3n2)cc1OC` [Example 43] the same measures were < 10 µM and < 0.3 µM.
For `COc1ccc(-c2cnc3nc(N)nc(N4CCN(Cc5cccc(C)c5)CC4)c3n2)cc1OC` [Example 49], in that order: 10 to 20 µM and < 0.3 µM.
In the case of `COc1ccc(-c2cnc3nc(N)nc(N4CCN(Cc5ccc(C)cc5)CC4)c3n2)cc1OC` [Example 52], the CC50 with Huh-7 HCV replicon cells is > 20 µM. Besides, at HCV replicon, the EC50 is 0.3 to 1 µM.
For `COc1ccc(-c2cnc3nc(N)nc(N4CCN(Cc5ccccc5F)CC4)c3n2)cc1OC` [Example 53] the same measures were < 10 µM and < 0.3 µM.
For `CCCCc1ccc(C(=O)N2CCN(c3nc(N)nc4ncc(-c5ccc(OC)c(OC)c5)nc34)CC2)cc1` [Example 54] the same measures were < 10 µM and < 0.3 µM.
For `COCCN1CCN(c2nc(N)nc3ncc(-c4ccc(OC)c(OC)c4)nc23)CC1` [Example 55] the same measures were > 20 µM and 0.3 to 1 µM.
Consider `COc1ccc(-c2cnc3nc(N)nc(N4CCN(C(=O)Oc5ccc(C)cc5)CC4)c3n2)cc1OC` [Example 59], for which, in the data set with Huh-7 HCV replicon cells, the CC50 was < 10 µM. On HCV replicon, the EC50 is < 0.3 µM.
For `COc1ccc(OC(=O)N2CCN(c3nc(N)nc4ncc(-c5ccc(OC)c(OC)c5)nc34)CC2)cc1` [Example 60], in that order: < 10 µM and < 0.3 µM.
`COc1ccc(-c2cnc3nc(N)nc(N4CCN(C(=O)Oc5ccc(Cl)cc5)CC4)c3n2)cc1OC` [Example 63]: the CC50 in the data set with Huh-7 HCV replicon cells was < 10 µM. Also, the EC50 on HCV replicon is < 0.3 µM.
With `COCCOC(=O)N1CCN(c2nc(N)nc3ncc(-c4ccc(OC)c(OC)c4)nc23)CC1` [Example 65], in the data set on Huh-7 HCV replicon cells, the CC50 lay in the range of 10 to 20 µM. The EC50 on HCV replicon was < 0.3 µM.
For `COc1ccc(-c2cnc3nc(N)nc(N4CCN(C(C)c5ccccc5)CC4)c3n2)cc1OC` (centres unmarked) [Example 73], in that order: < 10 µM and < 0.3 µM.
For `COc1ccc(-c2cnc3nc(N)nc(N4CCN(Cc5cccnc5)CC4)c3n2)cc1OC` [Example 80], in that order: 10 to 20 µM and < 0.3 µM.
For `COc1ccc(-c2cnc3nc(N)nc(N4CCN(Cc5ccncc5)CC4)c3n2)cc1OC` [Example 81], in that order: 10 to 20 µM and 0.3 to 1 µM.
Turning to `COc1ccc(-c2cnc3nc(N)nc(N4CCN(CC(=O)N5CCOCC5)CC4)c3n2)cc1OC` [Example 83], the CC50 with Huh-7 HCV replicon cells is > 20 µM. Also, at HCV replicon, the EC50 was 0.3 to 1 µM.
For `COc1ccc(-c2cnc3nc(N)nc(N4CCN(CC(=O)N5CCCC5)CC4)c3n2)cc1OC` [Example 84], in that order: > 20 µM and < 0.3 µM.
For `COc1ccc(-c2cnc3nc(N)nc(N4CCN(CC(=O)N(C)c5ccccc5)CC4)c3n2)cc1OC` [Example 85] the same measures were < 10 µM and < 0.3 µM.
For `COc1ccc(-c2cnc3nc(N)nc(N4CCN(CCc5ccccc5)CC4)c3n2)cc1OC` [Example 86] the same measures were 10 to 20 µM and < 0.3 µM.
As for `COc1ccc(-c2cnc3nc(N)nc(N4CCN(C(=O)Nc5ccccc5)CC4)c3n2)cc1OC` [Example 87], the CC50 in the data set on Huh-7 HCV replicon cells was < 10 µM. On HCV replicon, the EC50 is < 0.3 µM.
For `COc1ccc(-c2cnc3nc(N)nc(N4CCN(C(=O)Nc5ccc(F)cc5)CC4)c3n2)cc1OC` [Example 88], in that order: < 10 µM and < 0.3 µM.
Regarding `COc1ccc(-c2cnc3nc(N)nc(N4CCN(C(=O)Nc5ccc(C#N)cc5)CC4)c3n2)cc1OC` [Example 89], in the data set on Huh-7 HCV replicon cells, the CC50 is > 20 µM. On HCV replicon, the EC50 was < 0.3 µM.
For `COc1ccc(N2CCN(c3nc(N)nc4ncc(-c5ccc(OC)c(OC)c5)nc34)CC2)cc1` [Example 95] the same measures were > 20 µM and 0.3 to 1 µM.
For `CCOC(=O)CN1CCN(c2nc(N)nc3ncc(-c4ccc(OC)c(OC)c4)nc23)CC1` [Example 98], in that order: 10 to 20 µM and < 0.3 µM.
For `COc1ccc(-c2cnc3nc(N)nc(N4CCN(Cc5ccccn5)CC4)c3n2)cc1OC` [Example 99] the same measures were 10 to 20 µM and 0.3 to 1 µM.
With `COc1ccc(-c2cnc3nc(N)nc(N4CCN(CCC#N)CC4)c3n2)cc1OC` [Example 100], the CC50 in the data set on Huh-7 HCV replicon cells lay within 10 to 20 µM. Besides, on HCV replicon, the EC50 was < 0.3 µM.
For `CCOCCN1CCN(c2nc(N)nc3ncc(-c4ccc(OC)c(OC)c4)nc23)CC1` [Example 104], in that order: > 20 µM and < 0.3 µM.

What is called CC50 is the concentration at which the toxic effect on the cells reaches its halfway point. The EC50 is the concentration needed to bring the measured effect to its halfway point.

The values are drawn from patent US20090318456A1, “SUBSTITUTED PTERIDINES FOR THE TREATMENT AND PREVENTION OF VIRAL INFECTIONS” (Gilead Sciences, Inc., priority 2006, published 2009).
